ChEMBL document CHEMBL1201862, “PubChem BioAssay data set” (2004)
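The compound was tested at five concentrations on cells cultured in 96-well plates, with a 48-hour exposure period. At the GI50, growth is halved.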 Calls of active or inactive are those of the source. Rule as the data show it: active = GI50 up to about 1.1 µM and inactive = higher.

What was measured:
Assay in all cases: NCI-60 cell line screen, 48 h
MDA-MB-231 = tested on: MDA-MB-231
HCT-116 = tested on: HCT-116
PC-3 = tested on: PC-3
NCI/ADR-RES = tested on: NCI/ADR-RES
HCC 2998 = tested on: HCC 2998
SK-MEL-28 = tested on: SK-MEL-28
CCRF-CEM = tested on: CCRF-CEM
NCI-H23 = tested on: NCI-H23
SN12C = tested on: SN12C
Hs-578T = tested on: Hs-578T
BT-549 = tested on: BT-549
OVCAR-8 = tested on: OVCAR-8
NCI-H460 = tested on: NCI-H460
U-251 = tested on: U-251
SNB-19 = tested on: SNB-19
LOX IMVI = tested on: LOX IMVI
ACHN = tested on: ACHN
HOP-92 = tested on: HOP-92
Malme-3M = tested on: Malme-3M
SK-MEL-2 = tested on: SK-MEL-2

Measured: GI50

Fc1nc(-c2c3ccccc3c3sc4ccccc4n23)nc(N2CCOCCOCCOCCOCC2)n1
inactive: MDA-MB-231 86.9 µM | HCT-116 62.4 µM | PC-3 > 100 µM | NCI/ADR-RES 56.8 µM | HCC 2998 > 100 µM | SK-MEL-28 > 100 µM | CCRF-CEM 54.5 µM | NCI-H23 > 100 µM | SN12C > 100 µM | Hs-578T 37.3 µM | BT-549 87.1 µM | OVCAR-8 40.2 µM | NCI-H460 > 100 µM | U-251 44.8 µM | SNB-19 35.6 µM | LOX IMVI > 100 µM | ACHN > 100 µM | HOP-92 20.9 µM | Malme-3M > 100 µM

c1csc(-c2cscc2-c2cccs2)c1
inactive: MDA-MB-231 > 100 µM | HCT-116 29.8 µM | PC-3 5.38 µM | NCI/ADR-RES 42.9 µM | HCC 2998 22.9 µM | SK-MEL-28 > 100 µM | CCRF-CEM 44.1 µM | NCI-H23 28.2 µM | SN12C > 100 µM | Hs-578T 54.8 µM | BT-549 63.4 µM | OVCAR-8 57.4 µM | NCI-H460 > 100 µM | U-251 > 100 µM | SNB-19 > 100 µM | LOX IMVI 43.2 µM | ACHN > 100 µM | HOP-92 78.5 µM

COc1cccc(CCn2c(N)c(C(=O)O)c3ccc([N+](=O)[O-])cc3c2=O)c1
inactive: MDA-MB-231 16.9 µM | HCT-116 25.1 µM | SK-MEL-2 22.6 µM | PC-3 29.2 µM | NCI/ADR-RES 28.9 µM | HCC 2998 53.2 µM | SK-MEL-28 > 100 µM | CCRF-CEM > 100 µM | NCI-H23 19.5 µM | SN12C 21.8 µM | Hs-578T 33.2 µM | BT-549 25.4 µM | OVCAR-8 36.6 µM | NCI-H460 32.8 µM | U-251 25.9 µM | SNB-19 39.1 µM | LOX IMVI 35.2 µM | ACHN 33.7 µM | Malme-3M 37.3 µM

CC(C)C(/C=C/c1ccc(Cl)c(Cl)c1)=N\NC(=O)N/N=C(/C=C/c1ccc(Cl)c(Cl)c1)C(C)C
inactive: MDA-MB-231 > 100 µM | PC-3 > 100 µM | NCI/ADR-RES > 100 µM | HCC 2998 > 100 µM | SK-MEL-28 > 100 µM | CCRF-CEM > 100 µM | NCI-H23 > 100 µM | SN12C > 100 µM | Hs-578T > 100 µM | BT-549 > 100 µM | OVCAR-8 > 100 µM | NCI-H460 > 100 µM | U-251 > 100 µM | SNB-19 > 100 µM | LOX IMVI > 100 µM | ACHN > 100 µM | HOP-92 > 100 µM | Malme-3M > 100 µM
